In patent US11213533B2, “Combinations comprising dibromopropamidine or diminazene and a tetracycline anti-bacterial agent” (UNION therapeutics A/S, priority 2016, dated 2022):
Counter-ions that a name gives are not always drawn. Like-named read-outs stand apart in the source and are kept apart here.

What was measured:
E. Coli = test: Checkerboard MIC / synergy determination (FIC, CI) against E. coli; format: cell-based, Escherichia coli; conditions: for MIC tetracycline (μg/ml) (combination): MIC of the tetracycline antibiotic in combination with diminazene; for CI value: combination of the tetracycline antibiotic with diminazene, CI < 1 = synergy; for FIC tetracycline compound: in combination with diminazene; for MIC: Escherichia coli
[1] = cited from earlier work
[2] = tested on: Pseudomonas aeruginosa (X11045); test: Checkerboard MIC / synergy determination (FIC, CI) against Pseudomonas aeruginosa; format: cell-based; conditions: for MIC tetracycline (μg/ml) (combination) / CI value / synergy with diminazene (in words) / FIC tetracycline compound / FIC tetracycline / MIC tetracycline / MIC tetracycline compound / MIC / MIC dibromopropamidine (μg/ml) (combination) / FIC dibromopropamidine / MIC diminazene (μg/ml) (combination): P. aeruginosa; for CI value: CI < 1 = synergy; for synergy with diminazene (in words): combination with diminazene, Table 2; for FIC tetracycline compound: in combination with dibromopropamidine; for FIC tetracycline: in combination with diminazene; for synergy with dibromopropamidine (in words): combination with dibromopropamidine, inhibition of P. aeruginosa, Table 3; for MIC: Pseudomonas aeruginosa
Protocol: In microbiology, minimum inhibitory concentration (MIC) is the lowest concentration of an antibacterial that will inhibit the visible growth of a microorganism after overnight incubation. Minimum inhibitory concentrations are important in diagnostic laboratories to confirm resistance of microorganisms to an antimicrobial agent and also to monitor the activity of new antimicrobial agents. The MIC can be determined using standard methods, for example as described in Andrews, J. Antimicrobial Chemotherapy, 48, 2001, Suppl. S1, 5-16. Typically, MIC is determined using 96-well plates, and serial two-fold dilutions of the antibacterial agent in a culture medium containing the bacteria with an approximate concentration of 10^3 cells per well. Plates are incubated at 37° C. for 18 to 24 hours. Optical density, at a wavelength of 600 nm, is then measured at the start and at the end of the incubation period. Inhibition in a particular well is calculated as (Inhibition=1−ODtest/ODno treatment). The MIC value is the minimum concentration of antibacterial agent which gives 100% inhibition. Experiments are generally performed at least as triplicate biological replicates.
The CI is measured by first calculating the fractional inhibitory concentration (FIC) of the individual actives (e.g. “compound A” or “compound B”) in a combination product against a certain bacterial strain. This is calculated by dividing the minimum inhibitory concentration (MIC) of the active in a combination product by the minimum inhibitory concentration of the active alone.
The Combination Index (CI) is calculated by adding the FIC of the two actives together. CI value=FICCompound A+FICCompound B
A CI value of 1 means the combined effect of the two agents is additive. A CI value of less than 1 means that the two agents act synergistically. It is therefore understood that the lower the CI value, the better the synergistic effect of the combination product. For a drug combination to show synergistic effects, the CI value will typically be less than 1.
This study was conducted with the following strains: Pseudomonas aeruginosa (X11045). P. aeruginosa (X11045) was received form Statens Serum Institute.
The bacteria from cryopreserved stocks were grown on LB agar plates [G. Bertani, “Studies on lysogenesis. I. The mode of phage liberation by lysogenic Escherichia coli,” J. Bacteriol., vol. 62, no. 3, pp. 293-300, September 1951] and incubated overnight at 37° C.
One colony was transferred into 15 ml of cation-adjust Mueller Hinton broth (MH2) [J. H. Mueller and J. Hinton, “A Protein-Free Medium for Primary Isolation of the Gonococcus and Meningococcus,” Exp. Biol. Med., vol. 48, no. 1, pp. 330-333, October 1941] and incubated overnight at 37° C. shaken at 200 rpm.
Checkerboard Methods of Antimicrobial Combinations Synergy Determination • 1. Day 1. • Bacterial strains are isolated on agar plates and incubated overnight at 37° C. Pseudomonas aeruginosa (X11045) on LB agar. • 2. Day 2. • For each strain, one colony is transferred into 15 ml of Mueller Hinton broth (MHB) and incubated overnight at 37° C. shaken at 200 rpm. • 3. Day 3. • Fifty microliters of the O/N culture are inoculated to 5 ml of Mueller Hinton broth in 15 ml conical tubes and incubated for 5 hours at 37° C. shaken at 200 rpm. • 4. Dispense 150 μl of MHB in each well of the 12th column for positive and negative controls as shown above. • 5. Prepare each drug to Cmax×2 • a. Diminazene/Dibromopropamidine: • Make a series of 2-fold dilution as shown in the plate layout. Using the 12 channel pipet, dispense 75 μl of diminazene solution in each well so that the final volume will be 150 μl and the final concentration is as shown in the plate schematic above. • b. Tetracycline antibiotics: • Make a series of 2-fold dilution as shown in the plate layout. […]

[3] = MIC of the tetracycline antibiotic in combination with dibromopropamidine
[4] = MIC of the tetracycline antibiotic in combination with diminazene, OD600 after 18 hours
[5] = combination of the tetracycline antibiotic with dibromopropamidine
[6] = combination of the tetracycline antibiotic with diminazene
[7] = tetracycline antibiotic alone, Table 2 (diminazene series)
[8] = tetracycline antibiotic alone, Table 3 (dibromopropamidine series)
[9] = in combination with doxycycline hyclate
[10] = in combination with minocycline hydrochloride
[11] = in combination with tetracycline hydrochloride
[12] = in combination with tigecycline hydrate
[13] = diminazene alone, read-out: MIC diminazene
[14] = diminazene in combination with doxycycline hyclate
[15] = diminazene in combination with minocycline hydrochloride
[16] = diminazene in combination with tetracycline hydrochloride

| Compound | MIC tetracycline (μg/ml) (combination) (E. Coli) [µg/mL] | CI value (E. Coli) | FIC tetracycline compound (E. Coli) | MIC tetracycline compound (E. Coli; tetracycline antibiotic alone) [µg/mL] | Protein binding (%) [1] | MIC tetracycline (μg/ml) (combination) [2, 3] [µg/mL] | MIC tetracycline (μg/ml) (combination) [2, 4] [µg/mL] | CI value [2, 5] | CI value [2, 6] | synergy with diminazene (in words) [2] | FIC tetracycline compound [2] | FIC tetracycline [2] | MIC tetracycline compound [2, 8] [µg/mL] | other results |
| --- | --- | --- | --- | --- | --- | --- | --- | --- | --- | --- | --- | --- | --- | --- |
| C[C@H]1c2cccc(O)c2C(=O)C2=C(O)[C@]3(O)C(=O)C(C(N)=O)=C(O)[C@@H](N(C)C)[C@@H]3[C@@H](O)[C@@H]21 [Doxycycline hyclate] | 0.25 | 0.56 | 0.50 | 0.50 | 85% | 0.50 | 3.13 | 0.28 | 0.25 | strong synergy | 0.03 | 0.13 | 16.00 | MIC tetracycline [2, 7]: 25.00 µg/mL |
| CN(C)c1ccc(O)c2c1C[C@H]1C[C@H]3[C@H](N(C)C)C(O)=C(C(N)=O)C(=O)[C@@]3(O)C(O)=C1C2=O.Cl [Minocycline hydrochloride] | 0.13 | 0.50 | 0.25 | 0.50 | 66% | 0.50 | 3.13 | 0.28 | 0.25 | strong synergy | 0.03 | 0.13 | 16.00 | synergy with dibromopropamidine (in words) [2]: Especially strong synergy; MIC tetracycline [2, 7]: 25.00 µg/mL |
| CN(C)[C@@H]1C(O)=C(C(N)=O)C(=O)[C@@]2(O)C(O)=C3C(=O)c4c(O)cccc4[C@@](C)(O)[C@H]3C[C@@H]12.Cl [Tetracycline hydrochloride] | 0.50 | 2.00 | 1.00 | – | – | 2.00 | 4.00 | 0.63 | 0.50 | strong synergy | 0.13 | 0.25 | – | MIC (E. Coli; 18 h, tetracycline antibiotic alone, read-out: MIC tetracycline compound): 0.5 µg/mL; MIC ([2]; 18 h, tetracycline antibiotic alone, Table 2 (diminazene series), read-out: MIC tetracycline): 16 µg/mL; MIC ([2]; 18 h, tetracycline antibiotic alone, Table 3 (dibromopropamidine series), read-out: MIC tetracycline compound): 16 µg/mL |
| CN(C)c1cc(NC(=O)CNC(C)(C)C)c(O)c2c1C[C@H]1C[C@H]3[C@H](N(C)C)C(O)=C(C(N)=O)C(=O)[C@@]3(O)C(O)=C1C2=O [Tigecycline hydrate] | 0.25 | 0.38 | 0.25 | 1.00 | 80% | 0.50 | – | 0.52 | – | – | 0.02 | – | 32.0 | synergy with diminazene (in words) (E. Coli; combination with diminazene, Table 4): particularly good synergy |
| N=C(N)c1ccc(OCCCOc2ccc(C(=N)N)cc2Br)c(Br)c1 [dibromopropamidine, Dibromopropamidine dihydrochloride] | – | – | – | – | – | – | – | – | – | – | – | – | – | MIC ([2]; dibromopropamidine alone, read-out: MIC dibromopropamidine): 10 µg/mL; MIC dibromopropamidine (μg/ml) (combination) ([2]; dibromopropamidine in combination with doxycycline hyclate): 2.50 µg/mL; MIC dibromopropamidine (μg/ml) (combination) ([2]; dibromopropamidine in combination with minocycline hydrochloride): 2.50 µg/mL; MIC dibromopropamidine (μg/ml) (combination) ([2]; dibromopropamidine in combination with tetracycline hydrochloride): 5.00 µg/mL; MIC dibromopropamidine (μg/ml) (combination) ([2]; dibromopropamidine in combination with tigecycline hydrate): 5.00 µg/mL; FIC dibromopropamidine [2, 9]: 0.25; FIC dibromopropamidine [2, 10]: 0.25; FIC dibromopropamidine [2, 11]: 0.50; FIC dibromopropamidine [2, 12]: 0.50 |
| N=C(N)c1ccc(/N=N/Nc2ccc(C(=N)N)cc2)cc1 [diminazene, Diminazene aceturate] | – | – | – | – | 65-85% | – | – | – | – | – | – | – | – | MIC (E. Coli; [13]): 20 µg/mL; MIC diminazene (μg/ml) (combination) (E. Coli; [14]): 1.25 µg/mL; MIC diminazene (μg/ml) (combination) (E. Coli; [15]): 5.00 µg/mL; MIC diminazene (μg/ml) (combination) (E. Coli; [16]): 20.00 µg/mL; MIC diminazene (μg/ml) (combination) (E. Coli; diminazene in combination with tigecycline hydrate): 2.50 µg/mL; FIC diminazene (E. Coli; [9]): 0.06; FIC diminazene (E. Coli; [10]): 0.25; FIC diminazene (E. Coli; [11]): 1.00; FIC diminazene (E. Coli; [12]): 0.13; MIC [2, 13]: 250 µg/mL; FIC dibromopropamidine ([2]; Table 2 (diminazene table), in combination with doxycycline hyclate): 0.13; FIC dibromopropamidine ([2]; Table 2 (diminazene table), in combination with minocycline hydrochloride): 0.13; FIC dibromopropamidine ([2]; Table 2 (diminazene table), in combination with tetracycline hydrochloride): 0.25; MIC diminazene (μg/ml) (combination) [2, 14]: 31.25 µg/mL; MIC diminazene (μg/ml) (combination) [2, 15]: 31.25 µg/mL; MIC diminazene (μg/ml) (combination) [2, 16]: 62.50 µg/mL |
| Doxycycline hyclate | – | – | – | – | – | – | – | – | – | – | – | – | – | synergy with dibromopropamidine (in words) [2]: Especially strong synergy |
